Assay results taken from patent US20240261274A1, “TREATMENT OF MYC-DRIVEN CANCERS WITH GSPT1 DEGRADERS” (MONTE ROSA THERAPEUTICS, INC., priority 2021, published 2024).

What was measured:
[1] = target: T1, Full length wild-type cereblon CRBN (Homo sapiens, UniProt Q96SW2); experiment: Fluorescence polarization (FP) assay indicating cereblon binding; details: bound stated; read-out: IC50 value
T1 construct: Full length wild-type cereblon CRBN (80.0 nM, 10 μL) was incubated in assay buffer
Method in brief: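 Full-length wild-type CRBN at 80.0 nM was preincubated 30 min at room temperature with compound (12-point curve, 300–0.937 or 3000–9.3 nM) in 20 mM HEPES pH 8.0, 150 NaCl, 0.5 mM TCEP, 0.05% Tween 20. Cy5-type thalidomide-based probe added at 5 nM final; FP read after 12 h (ex 590/em 675 nm), normalized to DMSO, IC50 fitted.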

GSPT1 = GSPT1 (Homo sapiens, UniProt P15170+Q96SW2); experiment: GSPT1 degradation immunofluorescence assay in CAL-51 cells; format: cell-based; parameters: endogenous in cells; host or cells: CAL-51 (DSMZ ACC302); details: 6 hours, Table 4, read-out: Activity for GSPT1 degradation, Code (DC50)
Method in brief: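 CAL-51 cells on fibronectin treated 6 h with compound (typically 30 μM to 0.1 nM), then fixed, permeabilised and immunostained for GSPT1, with phalloidin and DAPI. High-content imaging gave mean GSPT1 intensity per segmented cell. DC50 from non-linear regression after normalisation to DMSO and CC-885 (10 μM) controls.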

[2] = test system: human cell line NCI-H1155 xenograft; experiment: N-Myc-driven mouse xenograft model, NCI-H1155, compound 210 oral; format: in vivo
[3] = test system: human cell line NCI-H526 xenograft; experiment: N-Myc-driven mouse xenograft model, NCI-H526, compound 210 oral; format: in vivo

T1 sequence (Q96SW2 whole entry): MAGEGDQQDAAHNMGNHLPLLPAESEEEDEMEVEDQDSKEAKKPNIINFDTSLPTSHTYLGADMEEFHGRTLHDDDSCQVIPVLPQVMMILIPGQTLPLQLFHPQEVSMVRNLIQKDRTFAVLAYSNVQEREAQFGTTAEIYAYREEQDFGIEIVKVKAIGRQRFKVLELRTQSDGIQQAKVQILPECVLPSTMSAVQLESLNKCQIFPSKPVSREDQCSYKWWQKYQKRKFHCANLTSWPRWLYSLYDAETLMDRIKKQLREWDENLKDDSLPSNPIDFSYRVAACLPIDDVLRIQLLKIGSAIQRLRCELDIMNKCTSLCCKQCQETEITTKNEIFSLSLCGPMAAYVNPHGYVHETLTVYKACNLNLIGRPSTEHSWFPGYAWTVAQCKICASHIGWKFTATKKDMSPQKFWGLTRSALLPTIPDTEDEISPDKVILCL
Chain of GSPT1 (P15170 whole entry): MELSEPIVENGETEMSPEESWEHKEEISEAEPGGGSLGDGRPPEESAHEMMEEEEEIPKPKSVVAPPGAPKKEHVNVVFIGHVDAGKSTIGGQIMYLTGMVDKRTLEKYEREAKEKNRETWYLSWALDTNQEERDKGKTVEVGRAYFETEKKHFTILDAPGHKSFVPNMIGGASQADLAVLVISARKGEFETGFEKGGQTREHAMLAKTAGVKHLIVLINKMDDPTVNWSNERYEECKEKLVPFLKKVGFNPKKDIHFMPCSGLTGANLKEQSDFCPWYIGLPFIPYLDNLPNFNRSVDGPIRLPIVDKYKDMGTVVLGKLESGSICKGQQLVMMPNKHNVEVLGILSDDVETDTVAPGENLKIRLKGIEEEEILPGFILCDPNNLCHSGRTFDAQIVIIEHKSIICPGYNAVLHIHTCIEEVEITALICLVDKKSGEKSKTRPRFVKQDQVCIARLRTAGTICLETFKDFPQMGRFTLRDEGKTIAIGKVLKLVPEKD
Chain of GSPT1 (Q96SW2 whole entry): as the sequence (Q96SW2 whole entry) above
Chain of GSPT1 (Q16531 whole entry partner): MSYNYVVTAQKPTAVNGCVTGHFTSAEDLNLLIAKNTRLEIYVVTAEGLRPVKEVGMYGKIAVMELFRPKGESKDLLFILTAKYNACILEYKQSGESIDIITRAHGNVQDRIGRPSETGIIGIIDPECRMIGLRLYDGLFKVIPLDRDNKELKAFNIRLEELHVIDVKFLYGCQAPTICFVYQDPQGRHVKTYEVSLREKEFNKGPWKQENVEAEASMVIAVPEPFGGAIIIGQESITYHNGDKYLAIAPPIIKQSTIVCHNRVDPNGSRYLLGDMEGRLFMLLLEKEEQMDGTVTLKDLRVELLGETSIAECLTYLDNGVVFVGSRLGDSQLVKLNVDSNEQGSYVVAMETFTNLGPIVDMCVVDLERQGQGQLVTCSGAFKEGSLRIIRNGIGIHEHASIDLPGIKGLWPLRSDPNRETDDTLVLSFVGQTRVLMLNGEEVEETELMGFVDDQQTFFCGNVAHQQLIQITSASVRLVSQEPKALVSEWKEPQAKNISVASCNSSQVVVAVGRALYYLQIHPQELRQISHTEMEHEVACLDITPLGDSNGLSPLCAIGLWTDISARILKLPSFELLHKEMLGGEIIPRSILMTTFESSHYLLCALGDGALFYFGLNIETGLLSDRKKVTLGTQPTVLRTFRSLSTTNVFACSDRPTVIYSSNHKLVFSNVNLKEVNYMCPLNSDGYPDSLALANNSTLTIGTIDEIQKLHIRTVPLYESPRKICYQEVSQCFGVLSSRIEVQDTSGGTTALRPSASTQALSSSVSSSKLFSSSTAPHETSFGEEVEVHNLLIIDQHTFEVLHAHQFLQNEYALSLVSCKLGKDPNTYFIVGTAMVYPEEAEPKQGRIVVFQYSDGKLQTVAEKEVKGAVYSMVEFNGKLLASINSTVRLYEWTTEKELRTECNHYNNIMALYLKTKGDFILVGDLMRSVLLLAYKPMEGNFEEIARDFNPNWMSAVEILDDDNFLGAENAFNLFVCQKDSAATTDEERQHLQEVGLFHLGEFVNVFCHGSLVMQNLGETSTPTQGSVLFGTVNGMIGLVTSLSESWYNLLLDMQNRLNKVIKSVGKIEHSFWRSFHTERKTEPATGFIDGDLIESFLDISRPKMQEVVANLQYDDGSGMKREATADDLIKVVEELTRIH

SMILES | IC50 [1] | DC50 (GSPT1) | tumor growth ([2]; 1 mg/kg once daily PO) | tumor size ([2]; 3 mg/kg once daily PO) | tumor size ([2]; 6 mg/kg PO, five days on and nine days off) | body weight ([2]; oral administration (PO)) | tumor growth ([2]; oral administration (PO)) | tumor size ([3]; 3 mg/kg once daily) | tumor size ([3]; 6 mg/kg, five days on and nine days off) | body weight ([3]; oral administration) | tumor growth ([3]; oral administration)
Cc1ccc(NC(=O)NCc2ccc3c(c2)C(=O)N(C2CCC(=O)NC2=O)C3)cc1Cl (stereo not shown) [Compound 8] | < 1100 nM | ≤ 100 nM | – | – | – | – | – | – | – | – | –
Cc1ccc(NC(=O)OCc2ccc3c(c2)C(=O)N(C2CCC(=O)NC2=O)C3)cc1Cl (stereo not shown) [Compound 210] | – | – | tumor growth was suppressed for two weeks | tumor size decreased, became undetectable by day eight and remained so until the end of the study at day 21 | tumor size decreased, became undetectable by day eight and remained so until the end of the study at day 21 | no body weight loss observed | tumor growth inhibition | tumor size decreased and remained so until the end of the study | tumor size decreased and remained so until the end of the study | no body weight loss observed | tumor growth inhibition
Cc1c(Cl)cc(NC(=O)NCc2ccc3c(c2)C(=O)N(C2CCC(=O)NC2=O)C3)cc1CN1C2CCC1COC2 (stereo not shown) [Compound 138] | < 1100 nM | ≤ 100 nM | – | – | – | – | – | – | – | – | –
